Reference: patent publication US20180085416A1, “TRADITIONAL CHINESE MEDICINE COMPOSITION AND PREPARATION METHOD AND USE THEREOF” (INFINITUS (CHINA) COMPANY LTD., priority 2016, published 2018)

Tests used:
[1] = tested on: capsaicin induced rats' pharyngitis; experiment: Effect on acute pharyngitis (capsaicin induced pharyngitis), EB dye exudation at pharyngeal mucosa; type: in vivo, SD rats; conditions: 1 mg/kg intragastric, 10 days before modeling
Procedure: Experimental method: 90 male SD rats (˜8 weeks age) were randomized into 9 groups (10 rats/group). […] Animals from Comparative Example groups and Example of the present application groups were intragastrically administrated 30 days before modeling, once a day. Blank control group and model control group were administered equal volume of distilled water. […] The positive control group was administered at 1 mg/kg, and was intragastrically administrated 10 days before modeling. 24 hours after the last administration, the rats were anesthetized, injected with EB dye through the side tail vein. Ten minutes later, capsaicin was smeared to velopharyngeal tissue mucosa of rats, wherein each point was smeared for 3 times/5 seconds, with a total of 60 minutes. Blank control group was not subjected to stimulation.
After the end of the experiment, all rats were sacrificed by cervical dislocation, and were subjected to quantitative determination of EB dye exudation at pharyngeal mucosa respectively, in order to evaluate the improvement situation of pharyngeal mucosa inflammation of rats induced by capsaicin.

[2] = tested on: carrageenan induced toe swelling of mice; experiment: Acute inflammatory model: carrageenan-induced paw edema; type: in vivo, Balb/c mice; conditions: 10 mg/kg, blank control = 100
Procedure: 90 Balb/c male mice (about 8 weeks old) were randomized into 9 groups based on body weight (10 mice/group). The groups were respectively blank control group, model group and positive control group—dexamethasone group, high, medium and low dose groups of the traditional Chinese medicine composition produced by Comparative Example 1 (0.35, 1.05, 2.10 ml/kg), high, medium and low dose groups of the medicament produced by Example 1 (0.35, 1.05, 2.10 ml/kg). Animals from Comparative Example group and Examples of the present application groups were intragastrically administrated 30 days before modeling, once a day. Blank control group and model control group were administered equal volume of distilled water. The administration volume was always 2.10 ml/kg. Dexamethasone group was administered at 10 mg/kg, and was intragastrically administrated 10 days before modeling. The model control group was intragastrically administrated equal volume of distilled water for consecutive 30 days, once a day. On day 30, 1 hour after the test samples were administered, a line was drawn using a marker pen along the external malleolus of right rear paw of rats as the marker. A toe volume measuring instrument was used to measure the volumes of right rear toes of each groups of rats (as the toe volume at 0 hour), and then the right rear toes of rats were subcutaneously injected 1% carrageenan (0.05 mL/rat). The thickness of rat paws at 1, 2, 4 hours were measured respectively. Each animal was measured for 3 times at the same site, and the results were averaged. The swelling value is defined as the difference between the toe volumes measured at different times and the toe volumes before the action of proinflammatory agent, which is used to calculate the toe volume swelling rates at each time period.
[Paw edema (mm)]=[footpad thickness of carrageenan (mm)−footpad thickness of PBS (mm)].

mouse tampon granuloma = experiment: Chronic inflammatory model: cotton pellet (tampon) induced granuloma; type: in vivo, Balb/c mice; conditions: mice, 10 mg/kg
Procedure: 80 Balb/c male mice (about 8 weeks old) were randomized into 8 groups based on body weight (10 mice/group). The groups were respectively model group and positive control group—dexamethasone group, high, medium and low dose groups of the traditional Chinese medicine composition produced by Comparative Example 1 (0.35, 1.05, 2.10 ml/kg), high, medium and low dose groups of the medicament produced by Example 1 (0.35, 1.05, 2.10 ml/kg). Animals from Comparative Example group and Examples of the present application groups were intragastrically administrated 30 days before modeling, once a day. Model control group was administered equal volume of deionized water. The administration volume was always 2.10 ml/kg. Dexamethasone group was administered at 10 mg/kg, and was intragastrically administrated 10 days before modeling. After the last administration, the mice were anesthetized by intraperitoneal injection of 3% pentobarbital sodium at a dose of 60 mg/kg body weight. After anesthesia, the animals were fixed in supine position, and the bilateral inguinal clothing hairs of the rats were removed with a hair removal device. After iodophor disinfection, the rats were subjected to skin incision for about 2 cm at both sides of the groin, and a sterilized tampon was implanted at both sides of the groin of the rats. […]

[3] = tested on: excreted amount of phenol red in trachea of mice; experiment: Expectorant effect in mice (phenol red excretion in trachea); type: in vivo, Balb/c mice
Procedure: 80 Balb/c male mice (about 8 weeks old) were randomized into 8 groups based on body weight (10 mice/group). The groups were respectively blank control group and positive control group—ammonium chloride group (1 g/kg), high, medium and low dose groups of the traditional Chinese medicine composition produced by Comparative Example 1 (0.35, 1.05, 2.10 ml/kg), high, medium and low dose groups of the medicament produced by Example 1 (0.35, 1.05, 2.10 ml/kg). The blank control group was administered equal volume of deionized water. The administration volume was always 2.10 ml/kg. Gavage was performed for consecutive 30 days, once/day. 30 min before modeling, the positive control group was administered. […] A certain amount of phenol red was weighted with a balance, and 5% sodium bicarbonate solution was added to formulate 1 ml solution containing […] of phenol red, which was diluted sequentially to 1 mL solution containing 0.1, 0.3, 0.7, 1.0, 3.0, 5.0, 10.0 μg of phenol red was measured for absorbance. A standard curve was made by taking the dose of phenol red as abscissa, absorbance as ordinate. The amount of phenol red was calculated from the standard curve of phenol red according to the measured OD value. […]

Row | Compound | exudated amount of evans blue (EB) [1] [µg/g] | Swelling degrees of toes at different times after inflammation, 1 h ([2]; 1 h) | Swelling degrees of toes at different times after inflammation, 2 h ([2]; 2 h) | Swelling degrees of toes at different times after inflammation, 4 h ([2]; 4 h) | wet weight of granuloma (mouse tampon granuloma) | Net weight of granuloma (mouse tampon granuloma; dried weight minus original weight of tampon) [mg] | excreted amount of phenol red, result in words ([3]; compared with control group) | excreted amount of phenol red ([3]; mice, 1 g/kg, 30 min before modeling) [µg/mL]
1 | C[C@@H]1C[C@H]2[C@@H]3CCC4=CC(=O)C=C[C@]4(C)[C@@]3(F)[C@@H](O)C[C@]2(C)[C@@]1(O)C(=O)CO [dexamethasone, Dexamethasone] | 36.98 ± 2.74 | 177.23 | 164.17 | 157.17 | 217.11 | 13.03 | – | –
2 | Cl.N [ammonium chloride] | – | – | – | – | – | – | significantly (P<0.05) increase the excreted amount of phenol red | 7.92 ± 0.88
